Series [1] is described as follows: Experiment 1: morning blood pressure after 3 weeks of controlled-release melatonin in elderly insomnia patients. It is filed as in vivo, human. The following applies: hypertensive elderly subjects; administration in the evening. On the procedure: All patients, who had been insomniacs, were diagnosed according to DSM IV. They consisted of 86 men and 96 women, age 72±9 years. […] During the last week of the treatment period, BP was assessed at the morning and comparisons were made between placebo or melatonin treatments, and baseline.

For series [2] the following is noted: 2 mg/os daily at 18:00 h for 2 months; adult men; cited from earlier work.
Another series has as its system rabbit aorta. Conditions: high concentrations 10-1000 μM; in vitro; cited from earlier work.

Consider `COc1ccc2[nH]cc(CCNC(C)=O)c2c1` [melatonin], for which the “daytime systolic and diastolic blood pressure” value in series [1] is “decreased”. Also, the “mean serum melatonin levels” value in series [2] was “marked elevation”. Besides, the Vasorelaxing action entry in the series with rabbit aorta is “observed”.

The record behind these values is patent publication US7332177B1, “Method and formulation for treating resistance to antihypertensives and related conditions” (Neurim Pharmaceuticals (1991) Ltd., priority 2000, dated 2008).
